Results reported in PMC3689833, “Neurochemical Changes in the Mouse Hippocampus Underlying the Antidepressant Effect of Genetic Deletion of P2X7 Receptors” (PLoS ONE, 2013).

Test system: BDNF level in hippocampal slices
Assay: BDNF protein assay (ELISA), in vitro study in hippocampal slices
Type: cell-based, mouse
Settings: BBG 100 nM
Procedure: The P2rx7 wild type and knockout mice were anesthetized under light CO2 inhalation and decapitated. The hippocampus was dissected in ice-cold Krebs solution saturated with 95% O2 and 5% CO2, sectioned (400 µm thick slices) using a McIlwain tissue chopper and incubated in 2 ml of modified Krebs solution in the presence of 1 ml Hibernate medium, ascorbic acid (300 µM) and Na2EDTA (30 µM) for 60 min. The medium was bubbled continuously with 95% O2 and 5% CO2 and maintained at 37°C. The P2rx7 agonist, BzATP, was added to the incubation solution for 30 min, whereas BBG was applied 15 min before BzATP application. RO-256981, 6-cyano-7-nitroquinoxaline-2,3-dione (CNQX) and 3-Chloro-4-fluoro-N-[4[[2(phenylcarbonyl)hydrazino]carbonyl]benzyl] benzenesulfonamide (TCN-201) were applied for 15 min, while MCPG was administered for 30 min. The group I metabotropic glutamate receptor agonist, dihydroxyphenylglycine (DHPG), was administered for 10 min. The DHPG, MCPG, and RO-256981 dosages were chosen based on previous studies, [47], [48]. In the experiments with BzATP, Mg^2+ was omitted from the incubation solution. The hippocampal slices were collected, frozen on dry ice and stored at −70°C until further investigation. Each experimental group contained 3–4 mice.
At the time of analysis, the samples were removed from the freezer and weighed. The BDNF extraction procedure was performed in accordance with the methods of a previous study. For the BDNF assays, 2 ml lysis buffer (100 mM PIPES, pH 7, 500 mM NaCl, 0.2% Triton X-100, 0.1% NaN3, 2% BSA, 2 mM EDTA, 200 µM PMSF, 10 µg/mL aprotinin, 1 µg/mL leupeptin, and 0.5 mM sodium vanadate) was added to each sample, and the hippocampus was sonicated at power level 2 using pulses at 1 sec intervals for 10–15 sec. Subsequently, the samples were centrifuged at 16,000 × g for 30 min at 4°C. 100 µl aliquots of the resulting supernatants were removed and diluted with 400 µl of DPBS buffer (137 mM NaCl, 2.68 mM KCl, 1.47 mM KH2PO4, 8.1 mM Na2HPO4 (pH 7.35), 0.9 mM CaCl2·H2O, and 0.5 mM MgCl2·H2O). The supernatants were collected and stored at −70?C until further analysis. For the total free BDNF measurement, the samples were acid treated with 1 µl of 1 N HCl for each 50 µl of diluted samples to decrease the pH to 2.5, followed by incubation at room temperature for 15 min. The samples were neutralized with 1 µl of 1 N NaOH for each 50 µl of diluted samples. The levels of BDNF (both precursor and mature forms) expression were evaluated using an enzyme-linked immunosorbent assay (ELISA) kit and a BDNF Emax ImmunoAssay System (Promega Corporation, Madison, WI, USA), which is specific for mouse BDNF protein, according to the manufacturer’s instructions. The BDNF levels were calculated by plotting the optical density (OD) of each sample against the standard curve. A seven-point standard curve using two-fold serial dilutions in Reagent Diluent (according the manufacturer’s instructions) and a high standard of 500 pg/ml were used for the determination of BDNF levels. The assay detection limits were <15 pg/ml. Absorbance was measured at 450 nm using a Perkin-Elmer Victor 3V 1420 Multilabel Counter.

Compound: CCOc1ccc(Nc2ccc(/C(=C3C=C/C(=[N+](/CC)Cc4cccc(S(=O)(=O)[O-])c4)C=C/3C)c3ccc(N(CC)Cc4cccc(S(=O)(=O)O)c4)cc3C)cc2)cc1 [BBG, Brilliant blue G]
- BDNF level in hippocampal slices in the presence of BzATP (P2rx7+/+ slices, + BzATP 100 µM, Mg2+-free, RO-256981 3 µM, MCPG 200 µM, DHPG 100 µM): 77.87 ± 4.24 pg/mL
- BDNF level in hippocampal slices (P2rx7+/+ slices): 118.22 ± 1.59 pg/mL
- increase of basal BDNF level (P2rx7+/+ slices): 656%
- BDNF level in hippocampal slices (P2rx7−/− slices): 60.31 ± 0.31 pg/mL
- increase of basal BDNF level (P2rx7−/− slices): 272.7%
